Results published in patent US8921370B2, “Bicyclo[3.2.1]octyl amide derivatives and uses of same” (H. Lundbeck A/S, priority 2010, dated 2014).
pIC50, pKi: −log10 of the molar value.

Legend:
hmGluR5 [1] = biological target: T1, hmGluR5 (Homo sapiens (Human), UniProt P41594); test: Calcium mobilization assay (FLIPR), negative allosteric activity, EC80 glutamate; format: cell-based; settings: HEK 293 cells expressing hmGluR5; for Emax: HEK293, FLIPR maximum inhibition of EC80 glutamate response, read-out: hmGlu5 FLIPR % inhibition; for pIC50: inhibition of EC80 glutamate response
T1 sequence (P41594 21-1212): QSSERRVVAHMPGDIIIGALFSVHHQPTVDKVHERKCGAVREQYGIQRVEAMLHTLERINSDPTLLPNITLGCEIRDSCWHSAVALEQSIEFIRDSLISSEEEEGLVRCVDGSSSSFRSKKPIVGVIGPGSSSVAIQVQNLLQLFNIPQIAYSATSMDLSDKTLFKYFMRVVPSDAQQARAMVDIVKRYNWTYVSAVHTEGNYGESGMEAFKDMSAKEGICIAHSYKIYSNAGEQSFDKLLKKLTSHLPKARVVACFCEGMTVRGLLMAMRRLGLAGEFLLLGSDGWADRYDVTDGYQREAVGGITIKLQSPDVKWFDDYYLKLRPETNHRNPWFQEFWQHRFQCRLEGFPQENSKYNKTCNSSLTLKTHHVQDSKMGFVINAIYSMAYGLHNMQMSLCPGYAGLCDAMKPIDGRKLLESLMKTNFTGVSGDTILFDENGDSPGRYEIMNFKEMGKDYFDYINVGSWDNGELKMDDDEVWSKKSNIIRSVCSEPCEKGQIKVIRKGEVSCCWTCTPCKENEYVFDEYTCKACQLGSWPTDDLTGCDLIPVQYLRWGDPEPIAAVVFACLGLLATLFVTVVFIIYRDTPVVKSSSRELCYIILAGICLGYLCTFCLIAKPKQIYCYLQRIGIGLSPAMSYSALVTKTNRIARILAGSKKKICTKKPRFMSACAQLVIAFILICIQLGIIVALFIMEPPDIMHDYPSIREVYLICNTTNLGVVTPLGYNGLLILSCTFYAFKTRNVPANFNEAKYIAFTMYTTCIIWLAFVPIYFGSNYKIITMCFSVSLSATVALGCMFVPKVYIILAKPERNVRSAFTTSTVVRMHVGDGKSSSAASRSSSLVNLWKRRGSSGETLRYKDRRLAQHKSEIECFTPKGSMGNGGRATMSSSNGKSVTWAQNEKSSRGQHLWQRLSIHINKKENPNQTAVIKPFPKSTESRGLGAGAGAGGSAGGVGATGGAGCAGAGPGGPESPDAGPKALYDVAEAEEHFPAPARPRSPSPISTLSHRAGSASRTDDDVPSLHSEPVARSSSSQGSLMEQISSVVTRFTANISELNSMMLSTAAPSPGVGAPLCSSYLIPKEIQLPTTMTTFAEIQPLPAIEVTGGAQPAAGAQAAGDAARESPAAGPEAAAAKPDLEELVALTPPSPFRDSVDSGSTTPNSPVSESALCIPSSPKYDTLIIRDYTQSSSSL
Method: The cDNA for rat metabotropic glutamate receptor 5 (rmGluR5) and the cDNA for human metabotropic glutamate receptor 5 […] gifts from S. Nakanishi (Kyoto University, Kyoto, Japan). […] Twenty-four hours prior to assay, cells were seeded into 384-well black wall microtiter plates coated with poly-D-lysine. […] After excess dye was discarded, cells were washed in assay buffer and layered with a final volume equal to 30 μL/well. […] Laser excitation energy was adjusted so that basal fluorescence readings were approximately 10,000 relative fluorescent units. […] Basal readings derived from negative controls were subtracted from all samples. Maximum change in fluorescence was calculated for each well. Concentration-response curves derived from the maximum change in fluorescence were analyzed by nonlinear regression (Hill equation). A negative modulator can be identified from these concentration-response curves if a compound produces a concentration dependent inhibition of the EC80 glutamate response.

hmGluR5 [2] = biological target: T1, hmGluR5; test: Radioligand binding assay (MPEP binding site); settings: radioligand binding to the MPEP site, 5 nM radioligand; Ki by Cheng-Prusoff
Method: Binding assays were performed as described in [J. A. O'Brien et al. Mol. Pharmacol., 2003, 64, 731-740] with slight modifications, including that a radioligand that binds to the […] (MPEP) binding site was used in place of [^3H]-MPEP. Briefly, after thawing, the membrane homogenates were resuspended in 50 mM Tris-HCl and 0.9% NaCl binding buffer at pH 7.4 to a final assay concentration of 20 μg is protein/well for radioligand filtration binding. Incubations included 5 nM radioligand, membranes and either buffer or varying concentrations of compound. Samples were incubated for 60 min at room temperature with shaking. Non-specific binding was defined with 10 μM cold MPEP when using the radioligand. After incubation, samples were filtered over a GF/C filter (presoaked in 0.25% polyethyleneimine (PEI)) and then washed 4 times using a Tomtec® Harvester 96® Mach III cell harvester (Tomtec, Hamden, Conn.) with 0.5 mL ice-cold 50 mM Tris-HCl (pH 7.4). IC50 values were derived from the inhibition curve and Ki values were calculated according to the Cheng and Prusoff equation of Ki=IC50/(1+[L]/Kd) described in [Y. Cheng and W. H. Prusoff Biochem. Pharmacol. 1973, 22, 3099-3108] where [L] is the concentration of radioligand and Kd is its dissociation constant at the receptor, derived from the saturation isotherm. The Ki values of compounds of the invention were <10 μM.

Row | Structure (SMILES) | Emax (hmGluR5 [1]) | pIC50 (hmGluR5 [1]) | pKi (hmGluR5 [2])
1 | Cc1cccc(NC(=O)C23CCCC(NC(=O)c4nc(C)cs4)(CC2)C3)n1 (stereo not drawn) [Example 171, 4-methyl-N-(5-(6-methylpyridin-2-ylcarbamoyl)bicyclo[3.2.1]octan-1-yl)thiazole-2-carboxamide] | 94% | 8.33 | 7.19
2 | Cc1cncc(C(=O)N[C@@]23CCC[C@@](NC(=O)c4cccc(F)c4)(CC2)C3)n1 [Example 161, 6-Methyl-pyrazine-2-carboxylic acid [(1S,5R)-5-(3-fluoro-benzoylamino)-bicyclo[3.2.1]oct-1-yl]-amide] | 90% | 6.87 | 5.92
3 | Cc1cccc(C(=O)N[C@@]23CCC[C@@](NC(=O)c4ccccn4)(CC2)C3)n1 [Example 126, 6-Methyl-pyridine-2-carboxylic acid {(1S,5R)-5-[(pyridine-2-carbonyl)-amino]-bicyclo[3.2.1]oct-1-yl}-amide] | 86% | 9.49 | 7.41
4 | Cc1cncc(C(=O)NC23CCCC(NC(=O)c4cccc(F)c4)(CC2)C3)n1 (stereo not drawn) [Example 6, 6-Methyl-pyrazine-2-carboxylic acid [5-(3-fluoro-benzoylamino)-bicyclo[3.2.1]oct-1-yl]-amide] | 92% | 8.05 | 7.11
5 | Cc1ncc(C(=O)NC23CCCC(NC(=O)c4cccc(Cl)c4)(CC2)C3)s1 (stereo not drawn) [Example 15, N-(5-(3-chlorobenzamido)bicyclo[3.2.1]octan-1-yl)-2-methylthiazole-5-carboxamide] | 88% | 7.59 | 6.47
6 | Cc1cccc(NC(=O)C23CCCC(NC(=O)c4cccc(Cl)c4)(CC2)C3)n1 (stereo not drawn) [Example 176, 5-(3-chlorobenzamido)-N-(6-methylpyridin-2-yl)bicyclo[3.2.1]octane-1-carboxamide] | 91% | 7.48 | 6.30
7 | Cc1cccc(C(=O)NC23CCCC(NC(=O)c4ccncc4)(CC2)C3)c1 (stereo not drawn) [Example 36, N-(5-(3-methylbenzamido)bicyclo[3.2.1]octan-1-yl)isonicotinamide] | 87% | 7.46 | 6.55
8 | Cc1cccc(C(=O)NC23CCCC(NC(=O)c4cccc(Cl)c4)(CC2)C3)n1 (stereo not drawn) [Example 2, N-(5-(3-chlorobenzamido)bicyclo[3.2.1]octan-1-yl)-6-methylpicolinamide] | 89% | 8.43 | 7.57
9 | Cc1cncc(C(=O)N[C@]23CCC[C@](NC(=O)c4cccc(F)c4)(CC2)C3)n1 [Example 160, 6-Methyl-pyrazine-2-carboxylic acid [(1R,5S)-5-(3-fluoro-benzoylamino)-bicyclo[3.2.1]oct-1-yl]-amide] | 89% | 8.41 | 7.46
10 | Cc1cccc(C(=O)NC23CCCC(C(=O)Nc4ccnc(C)n4)(CC2)C3)n1 (stereo not drawn) [Example 178, 6-methyl-N-(5-(2-methylpyrimidin-4-ylcarbamoyl)bicyclo[3.2.1]octan-1-yl)picolinamide] | 90% | 7.42 | 6.43
